Values after ≈ are worked out from the molar mass of the structure shown. *1 amine or outer side, *2 acyl side, *3 side chain or, on linkers, in order; H or OH if unused. Where a SMILES comes first, the peptide text is derived from it. [ ]: non-standard residue; d: D form. The star is where a group is joined. X2 = CCCCCCCCCCCCCCCCCC(=O)[C@H](CCC(N)=O)N*; X1 = CCCCCCCCCCCCCCCCC(=O)[C@H](CCC(N)=O)N*; β2hAla(2S) = C[C@@H](CN[*:1])C(=O)[*:2]; hLys = NCCCCC[C@H](N)C(=O)O; Nle = CCCC[C@H](N)C(=O)O; AEEA = NCCOCCOCC(=O)O
Experiments:
[1] = biological target: T1, Relaxin receptor 1 (Homo sapiens) (UniProt Q9HBX9); assay: Agonist activity at RXFP1 endogenously expressed in human OVCAR-5 cells assessed as increase in IBMX-induced cAMP accumulation pretreated with IBMX for 40 mins followed by compound addition and measured after 30 mins by HTRF assay relative to relaxin; format: functional, cell-based; settings: filed as agonist
T1 sequence (whole entry): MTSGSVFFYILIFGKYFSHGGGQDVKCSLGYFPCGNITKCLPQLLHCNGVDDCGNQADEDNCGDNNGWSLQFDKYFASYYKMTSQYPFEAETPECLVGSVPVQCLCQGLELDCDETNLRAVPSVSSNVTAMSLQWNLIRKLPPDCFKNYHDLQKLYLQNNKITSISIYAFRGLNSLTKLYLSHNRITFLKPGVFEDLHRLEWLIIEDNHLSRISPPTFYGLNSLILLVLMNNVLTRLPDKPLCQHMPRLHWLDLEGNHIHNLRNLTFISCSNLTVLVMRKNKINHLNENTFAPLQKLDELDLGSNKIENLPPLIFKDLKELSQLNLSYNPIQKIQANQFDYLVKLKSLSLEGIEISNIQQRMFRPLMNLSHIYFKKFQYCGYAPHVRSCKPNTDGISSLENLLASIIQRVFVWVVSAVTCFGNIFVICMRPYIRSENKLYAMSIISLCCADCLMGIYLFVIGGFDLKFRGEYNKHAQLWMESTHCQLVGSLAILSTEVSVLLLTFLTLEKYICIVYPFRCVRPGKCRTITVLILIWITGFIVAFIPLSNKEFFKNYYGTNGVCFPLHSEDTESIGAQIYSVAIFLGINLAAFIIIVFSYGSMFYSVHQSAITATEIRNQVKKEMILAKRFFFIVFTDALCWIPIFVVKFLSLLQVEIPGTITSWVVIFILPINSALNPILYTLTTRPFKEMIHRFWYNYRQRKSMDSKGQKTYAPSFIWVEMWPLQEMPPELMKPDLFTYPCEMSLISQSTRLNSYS

[2] = Half life in Sprague-Dawley rat at 1 mg/kg, iv measured upto 72 hrs by LC-HRMS analysis; format: ADME, organism-based; settings: in vivo
[3] = biological target: T1, Relaxin receptor 1 (Homo sapiens); assay: Selectivity ratio of EC50 for agonist activity at RXFP1 endogenously expressed in human OVCAR-5 cells in presence of 2 % HSA to EC50 for agonist activity at RXFP1 endogenously expressed in human OVCAR-5 cells in absence of HSA; format: cell-based
[4] = Stability in rat blood assessed as parent compound at 5 uM remaining after 4 hrs; format: ADME, tissue-based; settings: read-out: Stabilty
[5] = biological target: T2, Relaxin receptor 1 (Homo sapiens, UniProt Q9HBX9); assay: Agonist activity at RXFP1 endogenously expressed in human OVCAR-5 cells assessed as increase in IBMX-induced cAMP accumulation pretreated with IBMX for 40 mins followed by compound addition and measured after 30 mins by HTRF assay; format: functional, cell-based
T2 sequence (Q9HBX9 whole entry): T1 sequence (whole entry)

[6] = Stability in human blood assessed as parent compound at 5 uM remaining after 4 hrs; format: ADME, tissue-based; settings: read-out: Stabilty
[7] = biological target: T2, Relaxin receptor 1; assay: Agonist activity at RXFP1 endogenously expressed in human OVCAR-5 cells assessed as increase in IBMX-induced cAMP accumulation pretreated with IBMX for 40 mins followed by compound addition and measured after 30 mins in presence of 2 % HSA by HTRF assay; format: functional, cell-based
[8] = Bioavailability in Sprague-Dawley rat at 3 mg/kg, sc measured upto 72 hrs by LC-HRMS analysis; format: ADME, organism-based; settings: in vivo
[9] = biological target: T1, Relaxin receptor 1 (Homo sapiens); assay: Agonist activity at RXFP1 endogenously expressed in human OVCAR-5 cells assessed as increase in IBMX-induced cAMP accumulation pretreated with IBMX for 40 mins followed by compound addition and measured after 30 mins in presence of 2 % HSA by HTRF assay relative to control; format: functional, cell-based; settings: filed as agonist
[10] = Positive chronotropic activity in pithed Sprague-Dawley rat assessed as increase in heart rate at 1000 mg/kg, iv administered as bolus dose measured after 60 mins post dose; format: ADME, organism-based; settings: in vivo, 1 h
[11] = Stability in rat plasma assessed as parent compound remaining level at 5 uM remaining after 4 hrs; format: ADME, cell-free; settings: read-out: Stabilty
[12] = Stability in human plasma assessed as parent compound remaining level at 5 uM remaining after 4 hrs; format: ADME, cell-free; settings: read-out: Stabilty
[13] = Positive chronotropic activity in pithed Sprague-Dawley rat assessed as increase in heart rate at 20 to 1000 mg/kg, iv administered as bolus dose measured after 60 mins post dose; format: ADME, organism-based; settings: in vivo, 1 h, dose 20-1000 mg/kg
[14] = Aqueous solubility of compound in phosphate buffer at pH 7.4 measured after 24 hrs by UPLC analysis; format: physicochemical

Emax [1] [%] | half-life [2] [h] | Ratio EC50 [3] | remaining at 4 h, 5 µM [4] [%] | EC50 [5] [nM] | remaining at 4 h, 5 µM [6] [%] | EC50 [7] [nM] | bioavailability [8] [%] | Emax [9] [%] | remaining at 4 h, 5 µM [11] [%] | remaining at 4 h, 5 µM [12] [%] | solubility at 24 h [14] [mg/mL] | SMILES | Emin [10] [%] | Activity [13]
80 | 5.7 | 87 | 79 | 1 | 87 | 87 | 47 | 96 |  |  |  | CCCCCCCCCCCCCCCCC(=O)[C@H](CCC(N)=O)NC(=O)[C@H](CCC(=O)O)NC(=O)[C@H](CCC(=O)O)NC(=O)[C@H](CCCCN)NC(=O)COCCOCCNC(=O)COCCOCCNC(=O)COCCOCCNC(=O)[C@H](CCCCCNC(C)=O)NC(=O)[C@H](CCCCN)NC(=O)[C@H](CCCCN)NC(=O)[C@H](CCCNC(=N)N)NC(=O)[C@@H](C)CNC(=O)[C@H](CO)NC(=O)[C@H](Cc1c[nH]c2ccccc12)NC(=O)[C@@H](NC(=O)[C@H](CO)NC(=O)[C@H](CCCCCNC(C)=O)NC(=O)[C@H](CCCCN)NC(=O)[C@H](CCCC)NC(=O)[C@H](CCSC)NC(=O)CNC(=O)[C@H](CCC(=O)O)NC(=O)[C@@H](C)CNC(=O)[C@@H](C)CNC(=O)[C@@H](NC(=O)[C@H](CCCCCNC(C)=O)NC(=O)[C@H](CCCCN)NC(=O)[C@H](C)NC(=O)[C@H](CCCNC(=N)N)NC(=O)[C@@H](NC(=O)[C@H](CCCCN)NC(=O)[C@H](CCC(=O)O)NC(=O)[C@H](CCCNC(=N)N)NC(=O)[C@H](CCC(=O)O)NC(=O)CNC(=O)[C@H](CCC(=O)O)NC(=O)[C@H](CC(C)C)NC(C)=O)C(C)C)[C@@H](C)CC)[C@@H](C)O (Ac-LEGEREKVRAK[hLys](Ac)I[β2hAla(2S)][β2hAla(2S)]EGM[Nle]K[hLys](Ac)STWS[β2hAla(2S)]RKK[hLys](Ac)[AEEA][AEEA][AEEA]KEE-X1) |  | 
89 | 3.9 | 92 |  | 0.2 |  | 18.4 |  | 89 | 114 | 111 | 11.4 (≈ 2330 µM) | CCCCCCCCCCCCCCCCCC(=O)[C@H](CCC(N)=O)NC(=O)[C@H](CCC(=O)O)NC(=O)[C@H](CCC(=O)O)NC(=O)[C@H](CCCCN)NC(=O)COCCOCCNC(=O)COCCOCCNC(=O)COCCOCCNC(=O)[C@H](CCCCCNC(C)=O)NC(=O)[C@H](CCCCN)NC(=O)[C@H](CCCCN)NC(=O)[C@H](CCCNC(=N)N)NC(=O)[C@@H](C)CNC(=O)[C@H](CO)NC(=O)[C@H](Cc1c[nH]c2ccccc12)NC(=O)[C@@H](NC(=O)[C@H](CO)NC(=O)[C@H](CCCCCNC(C)=O)NC(=O)[C@H](CCCCN)NC(=O)[C@H](CCCC)NC(=O)[C@H](CCSC)NC(=O)CNC(=O)[C@H](CCC(=O)O)NC(=O)[C@@H](C)CNC(=O)[C@@H](C)CNC(=O)[C@@H](NC(=O)[C@H](CCCCCNC(C)=O)NC(=O)[C@H](CCCCN)NC(=O)[C@H](C)NC(=O)[C@H](CCCNC(=N)N)NC(=O)[C@@H](NC(=O)[C@H](CCCCN)NC(=O)[C@H](CCC(=O)O)NC(=O)[C@H](CCCNC(=N)N)NC(=O)[C@H](CCC(=O)O)NC(=O)CNC(=O)[C@H](CCC(=O)O)NC(=O)[C@H](CC(C)C)NC(C)=O)C(C)C)[C@@H](C)CC)[C@@H](C)O (Ac-LEGEREKVRAK[hLys](Ac)I[β2hAla(2S)][β2hAla(2S)]EGM[Nle]K[hLys](Ac)STWS[β2hAla(2S)]RKK[hLys](Ac)[AEEA][AEEA][AEEA]KEE-X2) | 26 | Dose-dependent effect

Reference: ChEMBL document CHEMBL4732190, “Identification of Potent and Long-Acting Single-Chain Peptide Mimetics of Human Relaxin-2 for Cardiovascular Diseases” (J Med Chem, 2021)
